# Assay results as given in patent US20230089073A1 (Carmot Therapeutics, Inc., priority 2021, published 2023).
# Target: T1, human GLP-1 receptor (Homo sapiens, UniProt P43220)
# T1 construct: expressed in transfected cells
# Test: GLP-1R cAMP Assay
# Assay type: cell-based
# Conditions: cAMP accumulation in CHO cells stably overexpressing the human GLP-1 receptor; 30 min treatment; HitHunter cAMP kit; read-out: EC50
# Method: cAMP accumulation was measured in Chinese hamster ovary (CHO) cells stably overexpressing the human GLP-1 receptor using the HitHunter cAMP Assay for Small Molecules Kit (Eurofins). Briefly, cells were grown in Ham's F12 Nutrient Mix with 10% FBS, and lifted with Cell Dissociation Buffer, Enzyme free, PBS based (ThermoFisher). […] The anti-cAMP antibody reagent was then added to cells at a 1:2 ratio and 5 μL of mixture was seeded in 384-well small volume white assay plates, at 10,000 cells/well. Cells were then treated with 50 nL compound using an ECHO 550 acoustic dispenser (Labcyte) in a 20-point dose response format in triplicate for 30 min. Cells were then lysed, and detection reagents added according to the manufacturer's protocol. After overnight incubation, luminescence was measured using a Perkin Elmer Envision plate reader. Dose response curves were analyzed using GraphPad Prism 9.0.
# T1 sequence (P43220 24-463): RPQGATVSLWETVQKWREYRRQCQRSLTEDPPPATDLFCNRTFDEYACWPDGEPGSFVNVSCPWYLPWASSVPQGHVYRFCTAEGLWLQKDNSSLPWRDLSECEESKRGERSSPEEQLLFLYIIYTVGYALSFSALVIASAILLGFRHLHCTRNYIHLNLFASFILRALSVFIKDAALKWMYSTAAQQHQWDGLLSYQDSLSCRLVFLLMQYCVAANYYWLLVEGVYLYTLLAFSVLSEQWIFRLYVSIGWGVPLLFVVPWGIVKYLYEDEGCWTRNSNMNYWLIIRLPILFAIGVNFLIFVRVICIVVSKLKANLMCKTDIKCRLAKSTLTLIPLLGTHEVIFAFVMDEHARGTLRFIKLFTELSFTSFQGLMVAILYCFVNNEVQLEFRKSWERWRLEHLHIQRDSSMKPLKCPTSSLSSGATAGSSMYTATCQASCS
row,SMILES,EC50
1,"Cc1ccc(N(C)c2cccc(C=C3CCN(Cc4nc5ccc(C(=O)O)cc5n4C[C@@H]4CCO4)CC3)c2)c(Cl)c1 [Example 106, (S)-2-((4-(3-((2-chloro-4-methylphenyl)(methyl)amino)benzylidene)piperidin-1-yl)methyl)-1-(oxetan-2-ylmethyl)-1H-benzo[d]imidazole-6-carboxylic acid]",50 to 500 nM
2,"N#Cc1ccc(OCc2nccc(O[C@@H]3C[C@H]4CC[C@@H](C3)N4Cc3nc4ccc(C(=O)O)cc4n3C[C@@H]3CCO3)n2)c(F)c1 [Compound 487, 2-{[(1R,3S,5S)-3-({2-[(4-cyano-2-fluorophenoxy)methyl]pyrimidin-4-yl}oxy)-8-azabicyclo[3.2.1]octan-8-yl]methyl}-1-{[(2S)-oxetan-2-yl]methyl}-1H-1,3-benzodiazole-6-carboxylic acid]",50 to 500 nM
3,"Cc1ccc(Oc2cccc(C(=O)N3CCN(Cc4nc5ccc(C(=O)O)cc5n4C[C@@H]4CCO4)CC3)c2)cc1 [Compound 5, 2-({4-[3-(4-methylphenoxy)benzoyl]piperazin-1-yl}methyl)-1-{[(2S)-oxetan-2-yl]methyl}-1H-1,3-benzodiazole-6-carboxylic acid]",> 500 nM
4,"Cc1ccc(Oc2cccc(C(=O)N3CCN(Cc4nc5ccc(C(=O)O)cc5n4C[C@@H]4CCO4)CC3)c2)c(F)c1 [Compound 16, 2-({4-[3-(2-fluoro-4-methylphenoxy)benzoyl]piperazin-1-yl}methyl)-1-{[(2S)-oxetan-2-yl]methyl}-1H-1,3-benzodiazole-6-carboxylic acid]",> 500 nM
5,"CCn1cncc1Cn1c(CN2CCN(C(=O)c3cccc(Nc4ccc(C)cc4Cl)c3)CC2)nc2ccc(C(=O)O)cc21 [Compound 58, 2-[(4-{3-[(2-chloro-4-methylphenyl)amino]benzoyl}piperazin-1-yl)methyl]-1-[(1-ethyl-1H-imidazol-5-yl)methyl]-1H-1,3-benzodiazole-6-carboxylic acid]",> 500 nM
6,"N#Cc1ccc(OCc2cccc(C(=O)N3CCN(Cc4nc5ccc(C(=O)O)cc5n4C[C@@H]4CCO4)CC3)c2)c(F)c1 [Compound 68, 2-[(4-{3-[(4-cyano-2-fluorophenoxy)methyl]benzoyl}piperazin-1-yl)methyl]-1-{[(2S)-oxetan-2-yl]methyl}-1H-1,3-benzodiazole-6-carboxylic acid]",> 500 nM
7,"CCn1cncc1Cn1c(CN2CCC(Oc3ccnc(COc4ccc(C#N)cc4F)c3)CC2)nc2ccc(C(=O)O)cc21 [Compound 275, 2-{[4-({2-[(4-cyano-2-fluorophenoxy)methyl]pyridin-4-yl}oxy)piperidin-1-yl]methyl}-1-[(1-ethyl-1H-imidazol-5-yl)methyl]-1H-1,3-benzodiazole-6-carboxylic acid]",< 50 nM
8,N#Cc1ccc(OCc2nccc(OC3CCN(Cc4nc5c(F)cc(C(=O)O)cc5n4CC4(CF)CC4)CC3)n2)c(F)c1 [Compound 314],< 50 nM
9,C[C@H]1C[C@@H](Oc2ccnc(COc3ccc(C(F)(F)F)cc3F)n2)CCN1Cc1nc2ccc(C(=O)O)nc2n1C[C@@H]1CCO1 [Compound 377],< 50 nM
10,"C[C@H]1C[C@@H](Oc2ccnc(COc3ccc(C#N)cc3Cl)n2)CCN1Cc1nc2ccc(C(=O)O)cc2n1C[C@@H]1CCO1 [Compound 477, 2-{[(2S,4S)-4-({2-[(2-chloro-4-cyanophenoxy)methyl]pyrimidin-4-yl}oxy)-2-methylpiperidin-1-yl]methyl}-1-{[(2S)-oxetan-2-yl]methyl}-1H-1,3-benzodiazole-6-carboxylic acid]",< 50 nM
11,"N#Cc1cc(Cl)ccc1OCc1cc(OC2CCN(Cc3nc4ccc(C(=O)O)cc4n3Cc3cnco3)CC2)ccn1 [Compound 240, 2-{[4-({2-[(4-chloro-2-cyanophenoxy)methyl]pyridin-4-yl}oxy)piperidin-1-yl]methyl}-1-[(1,3-oxazol-5-yl)methyl]-1H-1,3-benzodiazole-6-carboxylic acid]",< 50 nM
12,C[C@H]1C[C@@H](Oc2ccnc(COc3ccc(F)cc3C#N)n2)CCN1Cc1nc2ccc(C(=O)O)cc2n1CC1(CC#N)CC1 [Compound 353],< 50 nM
13,"O=C(O)c1ccc2nc(CN3CCC(Oc4ccnc(COc5ccc(Cl)cc5F)c4)CC3)n(Cc3ccno3)c2c1 [Compound 266, 2-{[4-({2-[(4-chloro-2-fluorophenoxy)methyl]pyridin-4-yl}oxy)piperidin-1-yl]methyl}-1-[(1,2-oxazol-5-yl)methyl]-1H-1,3-benzodiazole-6-carboxylic acid]",< 50 nM
14,"O=C(O)c1ccc2nc(CN3CCC(Oc4cccnc4COc4ccc(Cl)cc4Cl)CC3)n(C[C@@H]3CCO3)c2c1 [Compound 286, 2-{[4-({2-[(2,4-dichlorophenoxy)methyl]pyridin-3-yl}oxy)piperidin-1-yl]methyl}-1-{[(2S)-oxetan-2-yl]methyl}-1H-1,3-benzodiazole-6-carboxylic acid]",> 500 nM
15,"CCn1cncc1Cn1c(CN2CCC(Oc3cccc(COc4ccc(Cl)cc4F)n3)CC2)nc2ccc(C(=O)O)cc21 [Compound 247, 2-{[4-({6-[(4-chloro-2-fluorophenoxy)methyl]pyridin-2-yl}oxy)piperidin-1-yl]methyl}-1-[(1-ethyl-1H-imidazol-5-yl)methyl]-1H-1,3-benzodiazole-6-carboxylic acid]",< 50 nM
16,"Cc1ccc(N(C)c2cccc(C(=O)N3CCN(Cc4nc5ccc(C(=O)O)cc5n4C[C@@H]4CCO4)CC3)c2)cc1 [Compound 29, 2-[(4-{3-[methyl(4-methylphenyl)amino]benzoyl}piperazin-1-yl)methyl]-1-{[(2S)-oxetan-2-yl]methyl}-1H-1,3-benzodiazole-6-carboxylic acid]",50 to 500 nM
17,"CCn1cncc1Cn1c(CN2CCC([C@@H](OC)c3cccc(COc4ccc(Cl)cc4Cl)c3)CC2)nc2ccc(C(=O)O)cc21 (single isomer, unassigned) [Example 204]",50 to 500 nM
18,"Cc1cccc(Oc2cccc(C(=O)N3CCN(Cc4nc5ccc(C(=O)O)cc5n4C[C@@H]4CCO4)CC3)c2)c1 [Compound 17, 2-({4-[3-(3-methylphenoxy)benzoyl]piperazin-1-yl}methyl)-1-{[(2S)-oxetan-2-yl]methyl}-1H-1,3-benzodiazole-6-carboxylic acid]",> 500 nM
19,"Cc1ccc(N(C)c2cccc(C(=O)N3CCN(Cc4nc5ccc(C(=O)O)cc5n4C[C@@H]4CCO4)CC3)c2)c(Cl)c1 [Compound 51, 2-[(4-{3-[(2-chloro-4-methylphenyl)(methyl)amino]benzoyl}piperazin-1-yl)methyl]-1-{[(2S)-oxetan-2-yl]methyl}-1H-1,3-benzodiazole-6-carboxylic acid]",< 50 nM
20,N#CCC1(Cn2c(CN3CCC(Oc4ccnc(COc5ccc(F)cc5C#N)n4)CC3)nc3ccc(C(=O)O)cc32)CC1 [Compound 348],< 50 nM
21,"O=C(O)c1ccc2nc(CN3CCC(Oc4ccccc4COc4ccc(Cl)cc4Cl)CC3)n(C[C@@H]3CCO3)c2c1 [Compound 284, 2-[(4-{2-[(2,4-dichlorophenoxy)methyl]phenoxy}piperidin-1-yl)methyl]-1-{[(2S)-oxetan-2-yl]methyl}-1H-1,3-benzodiazole-6-carboxylic acid]",> 500 nM
22,"O=C(O)c1ccc2nc(CN3CCN(C(=O)c4ccc(COc5ccc(Cl)cc5Cl)o4)CC3)n(C[C@@H]3CCO3)c2c1 [Compound 26, 2-[(4-{5-[(2,4-dichlorophenoxy)methyl]furan-2-carbonyl}piperazin-1-yl)methyl]-1-{[(2S)-oxetan-2-yl]methyl}-1H-1,3-benzodiazole-6-carboxylic acid]",50 to 500 nM
23,"N#Cc1ccc(COc2cccc(C3CCN(C(=O)c4ccc(C(=O)O)nc4)CC3)n2)c(F)c1 [Example 91, 5-(4-(6-((4-Cyano-2-fluorobenzyl)oxy)pyridin-2-yl)piperidine-1-carbonyl)picolinic acid]",> 500 nM
24,"C[C@H]1C[C@@H](Oc2ccnc(COc3ccc(Cl)cc3Cl)c2)CCN1Cc1nc2ccc(C(=O)O)cc2n1C[C@@H]1CCO1 [Compound 283, 2-{[(2S,4S)-4-({2-[(2,4-dichlorophenoxy)methyl]pyridin-4-yl}oxy)-2-methylpiperidin-1-yl]methyl}-1-{[(2S)-oxetan-2-yl]methyl}-1H-1,3-benzodiazole-6-carboxylic acid]",< 50 nM
25,N#CCC1(Cn2c(CN3CCC(Oc4ccnc(COc5ccc(Cl)cc5Cl)n4)CC3)nc3c(F)cc(C(=O)O)cc32)CC1 [Compound 341],< 50 nM
26,"Cc1ccc(N(C)c2cccc(C(=O)N3CC4CCC(C3)N4Cc3nc4ccc(C(=O)O)cc4n3C[C@@H]3CCO3)c2)c(Cl)c1 [Compound 87, 2-[(3-{3-[(2-chloro-4-methylphenyl)(methyl)amino]benzoyl}-3,8-diazabicyclo[3,2.1]octan-8-yl)methyl]-1-{[(2S)-oxetan-2-yl]methyl}-1H-1,3-benzodiazole-6-carboxylic acid]",50 to 500 nM
27,"N#Cc1ccc(OCc2cc(OC3CCN(Cc4nc5ccc(C(=O)O)cc5n4C[C@@H]4CCO4)CC3)cnn2)c(F)c1 [Compound 491, 2-{[4-({6-[(4-cyano-2-fluorophenoxy)methyl]pyridazin-4-yl}oxy)piperidin-1-yl]methyl}-1-{[(2S)-oxetan-2-yl]methyl}-1H-1,3-benzodiazole-6-carboxylic acid]",< 50 nM
28,"Cc1ccc(OCc2cccc(CC3CCN(Cc4nc5ccc(C(=O)O)cc5n4C[C@@H]4CCO4)CC3)n2)c(C#N)c1 [Example 114, (S)-2-((4-((6-((2-Cyano-4-methylphenoxy)methyl)pyridin-2-yl)methyl)piperidin-1-yl)methyl)-1-(oxetan-2-ylmethyl)-1H-benzo[d]imidazole-6-carboxylic acid]",< 50 nM
